Measured values reported in article PMC4286326 (Journal of the American Chemical Society, 2014).
Where “and” joins values, the source holds several entries; their conditions need not be identical. Equal values may be shown once.

Experiments:
S31N mutant of M2 (A/M2) = S31N mutant of M2 (A/M2) (Influenza A virus, UniProt P0DOF5, S31N); format: biochemical; conditions: 100 µM
[1] = system: M2-S31N-expressing A/WSN/33; format: cell-based, influenza A virus; conditions: read-out: A/WSN/33 (S31N) EC50

Compound | % S31N inhibition (S31N mutant of M2 (A/M2)) | EC50 [1]
Brc1ccc(CNC23CC4CC(CC(C4)C2)C3)s1 [Compound 11, N-[(5-bromothiophen-2-yl)methyl]adamantan-1-amine] | 76% and 76/N.T. % | 1.8 µM
NC12CC3CC(CC(C3)C1)C2 [Compound 1, amantadine, reference compound] | 36% | 22.5 µM
